Data on four molecules can be found in ChEMBL document CHEMBL1201862, “PubChem BioAssay data set” (2004).

Active and inactive are the calls of the source.

The target in experiment [1] is Cytochrome P450 2D6 (Homo sapiens, UniProt P10635). Briefly: qHTS Assay for Inhibitors and Substrates of Cytochrome P450 2D6. [Related pubchem assays: 410 ]. In kind it is ADME. Particulars: read-out: Potency. For orientation: Quantitative high-throughput screening tests each substance at several concentrations.
The target of experiment [2] is Lysosomal acid glucosylceramidase (Homo sapiens, UniProt P04062). Briefly: Dose response cell-based high throughput screening assay to identify enhancers of beta-glucosidase activity. [Related pubchem assays: 784 ]. In kind it is functional.
The nature of experiment [3]: Luminescence Cell-Based Dose Retest to Confirm Inhibitors of Cancer Stem Cells. [Related pubchem assays (depositor defined):AID2717, AID2721]. In kind it is functional. Conditions: Homo sapiens.
In experiment [4] the test system is INS1. Briefly: INS-1E survival protection against cytokine death – cell-based, luminescence, retest, dose response (AID 449756).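 Further: cell death triggered by IL-1 beta plus TNF-alpha plus IFN-gamma mixture; protective hits raise ATP signal compared with cytokine alone wells.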 In kind it is functional. Particulars: Rattus norvegicus.
Experiment [5] has as its system HEK293. Briefly: Fluorescence-based counterscreen for potentiators or agonists of NPY-Y1: cell-based high-throughput dose response assay for inhibitors of cyclic nucleotide gated ion channel (CNGC) activity. In this assay, the parental HEK293 cell line transfected with a cyclic-nucleotide gated ion channel (CNGC)-based cAMP sensor is used to measure inhibition of isoproterenol-induced CNGC …. The experiment is classed as functional. Conditions: Homo sapiens. A general note: The purpose of a counterscreen is to sort out artefacts and off-target activity.

Experiment [6] deals with Vero. As to the kind of experiment: cells. The experiment is classed as functional. Conditions: Chlorocebus sabaeus.
The target of experiment [7] is T1, Neuropeptide Y receptor type 2 (Homo sapiens, UniProt P49146).
T1 sequence (P49146 whole entry): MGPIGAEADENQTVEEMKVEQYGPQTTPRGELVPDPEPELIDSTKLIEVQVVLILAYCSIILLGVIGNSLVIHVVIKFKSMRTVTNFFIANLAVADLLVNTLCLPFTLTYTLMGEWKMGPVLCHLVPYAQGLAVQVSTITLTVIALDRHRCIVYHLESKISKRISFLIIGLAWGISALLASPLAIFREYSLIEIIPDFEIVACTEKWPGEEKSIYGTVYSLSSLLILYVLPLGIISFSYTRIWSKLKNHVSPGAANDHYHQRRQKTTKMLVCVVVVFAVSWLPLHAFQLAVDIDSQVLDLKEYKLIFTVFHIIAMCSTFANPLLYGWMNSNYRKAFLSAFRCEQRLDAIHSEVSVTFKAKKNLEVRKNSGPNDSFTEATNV
As to the kind of experiment: Fluorescence-based counterscreen for agonists of NPY-Y1: cell-based high-throughput dose response assay for agonists of NPY-Y2. The experiment is classed as functional.

Experiment [8] concerns the target Beta-galactosidase (Escherichia coli, UniProt Q8VNN2). As to the kind of experiment: Dose response counterscreen for EBI2 assay utilizing the enzyme, b-galactosidase. The experiment is classed as functional.
Experiment [9] deals with T2, Neuropeptide Y receptor type 1 (Homo sapiens, UniProt P25929).
T2 sequence (P25929 whole entry): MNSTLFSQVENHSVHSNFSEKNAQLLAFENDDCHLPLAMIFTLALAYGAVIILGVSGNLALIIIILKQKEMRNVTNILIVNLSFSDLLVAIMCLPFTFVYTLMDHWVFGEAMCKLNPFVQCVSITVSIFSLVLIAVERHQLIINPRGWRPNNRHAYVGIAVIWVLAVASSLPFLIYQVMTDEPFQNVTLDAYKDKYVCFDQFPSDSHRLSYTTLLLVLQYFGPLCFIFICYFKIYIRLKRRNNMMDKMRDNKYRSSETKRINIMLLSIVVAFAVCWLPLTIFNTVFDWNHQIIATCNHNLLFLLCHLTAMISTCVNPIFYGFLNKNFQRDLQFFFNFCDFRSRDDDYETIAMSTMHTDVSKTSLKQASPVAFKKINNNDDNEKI
Briefly: Fluorescence-based dose response cell-based high-throughput screening assay for agonists of NPY-Y1. [Related pubchem assays: 1697 (Screening assay (NPY-Y1 agonists).), 1359 (Screening assay (NPY-Y2 potentiators or agonists).), 1304 (Screening assay (NPY-Y1 potentiators or agonists).), 1704 (Screening assay (CNGC inhibitors).), 1791 (Summary AID.)]. The experiment is classed as functional.

Experiment [10] has as its target Genome polyprotein (dengue virus type 2, UniProt P29990). Briefly: flavivirus cap methylation enzyme inhibition – biochemical, confirmation dose response, primary screen (AID 588689). The experiment is classed as functional.
In experiment [11] the target is FAD-linked sulfhydryl oxidase ALR (Homo sapiens, UniProt P55789). As to the kind of experiment: ALR-catalysed DTT oxidation blockers – biochemical, H2O2 detection, luminescence, cherry-pick, dose response (AID 493248).
Experiment [12] is described as follows: viability of uninfected HEp-2 cells – cell-based, HTS, cytotoxicity control for RSV inhibitor project, dose response (AID 2410). In kind it is functional. Particulars: human respiratory syncytial virus.
Experiment [13] addresses T3, Long-chain-fatty-acid--AMP ligase FadD28 (Mycobacterium tuberculosis, UniProt P9WQ59).
T3 sequence (P9WQ59 whole entry): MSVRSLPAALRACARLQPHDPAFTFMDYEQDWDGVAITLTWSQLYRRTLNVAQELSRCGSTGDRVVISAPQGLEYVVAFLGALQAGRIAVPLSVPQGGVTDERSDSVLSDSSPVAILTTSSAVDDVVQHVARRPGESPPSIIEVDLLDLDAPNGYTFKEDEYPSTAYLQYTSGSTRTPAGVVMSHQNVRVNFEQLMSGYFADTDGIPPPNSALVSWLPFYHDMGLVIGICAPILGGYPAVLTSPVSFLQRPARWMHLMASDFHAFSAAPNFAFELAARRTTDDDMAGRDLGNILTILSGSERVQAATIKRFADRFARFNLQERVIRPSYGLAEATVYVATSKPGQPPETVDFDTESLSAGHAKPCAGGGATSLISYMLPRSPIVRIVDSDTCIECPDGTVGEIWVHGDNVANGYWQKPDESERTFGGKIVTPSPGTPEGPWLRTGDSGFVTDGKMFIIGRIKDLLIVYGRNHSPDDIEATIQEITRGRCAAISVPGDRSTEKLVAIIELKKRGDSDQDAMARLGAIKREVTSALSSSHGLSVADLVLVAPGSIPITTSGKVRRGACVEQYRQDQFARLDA
As to the kind of experiment: Fluorescence polarization aasay to screen for inhibitors that compete for the binding of FadD28 to a bisubstrate Measured in Biochemical System Using Plate Reader - 2147-01_Inhibitor_Dose_CherryPick_Activity. In kind it is functional, Mycobacterium tuberculosis H37Rv. Background: Polarisation of emitted light reports the rotation of a fluorescent probe.

A short description of experiment [14]: CCR5-tropic HIV-1 fusion blockers – cell-based, CCR5-tropic Env, dose response (AID 2279). The experiment is classed as functional.

Sequence of FAD-linked sulfhydryl oxidase ALR (P55789 whole entry): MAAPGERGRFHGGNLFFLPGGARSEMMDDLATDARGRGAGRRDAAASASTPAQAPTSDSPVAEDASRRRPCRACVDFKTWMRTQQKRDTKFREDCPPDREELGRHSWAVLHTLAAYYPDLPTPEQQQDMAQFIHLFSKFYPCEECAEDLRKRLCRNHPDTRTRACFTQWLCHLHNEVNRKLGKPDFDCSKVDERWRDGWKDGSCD
Sequence of Beta-galactosidase (Q8VNN2 whole entry): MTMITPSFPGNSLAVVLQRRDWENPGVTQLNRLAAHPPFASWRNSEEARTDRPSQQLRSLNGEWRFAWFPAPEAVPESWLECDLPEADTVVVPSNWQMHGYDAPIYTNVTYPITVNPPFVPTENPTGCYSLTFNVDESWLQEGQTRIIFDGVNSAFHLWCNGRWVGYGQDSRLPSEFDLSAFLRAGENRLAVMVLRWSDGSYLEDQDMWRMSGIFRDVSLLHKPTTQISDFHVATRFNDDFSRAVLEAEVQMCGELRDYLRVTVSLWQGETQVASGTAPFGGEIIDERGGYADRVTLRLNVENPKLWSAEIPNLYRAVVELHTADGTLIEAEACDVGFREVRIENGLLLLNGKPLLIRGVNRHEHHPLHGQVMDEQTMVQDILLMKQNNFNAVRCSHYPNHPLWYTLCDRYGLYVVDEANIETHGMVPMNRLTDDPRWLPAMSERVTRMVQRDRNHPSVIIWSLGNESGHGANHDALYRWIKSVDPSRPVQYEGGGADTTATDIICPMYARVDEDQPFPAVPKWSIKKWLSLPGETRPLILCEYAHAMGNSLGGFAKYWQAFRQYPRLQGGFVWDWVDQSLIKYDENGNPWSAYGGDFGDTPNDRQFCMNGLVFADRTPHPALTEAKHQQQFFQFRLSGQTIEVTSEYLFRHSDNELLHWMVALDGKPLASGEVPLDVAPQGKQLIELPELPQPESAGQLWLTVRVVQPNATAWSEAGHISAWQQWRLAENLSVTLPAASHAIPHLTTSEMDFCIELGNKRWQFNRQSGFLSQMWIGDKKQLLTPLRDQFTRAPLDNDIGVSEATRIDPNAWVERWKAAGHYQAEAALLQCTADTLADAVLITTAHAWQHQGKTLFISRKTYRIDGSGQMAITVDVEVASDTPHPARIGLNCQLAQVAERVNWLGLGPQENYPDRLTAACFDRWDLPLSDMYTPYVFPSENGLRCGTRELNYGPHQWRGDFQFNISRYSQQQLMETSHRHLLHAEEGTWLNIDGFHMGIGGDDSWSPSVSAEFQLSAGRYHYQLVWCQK
Sequence of Genome polyprotein (P29990 2492-3391 limits assumed): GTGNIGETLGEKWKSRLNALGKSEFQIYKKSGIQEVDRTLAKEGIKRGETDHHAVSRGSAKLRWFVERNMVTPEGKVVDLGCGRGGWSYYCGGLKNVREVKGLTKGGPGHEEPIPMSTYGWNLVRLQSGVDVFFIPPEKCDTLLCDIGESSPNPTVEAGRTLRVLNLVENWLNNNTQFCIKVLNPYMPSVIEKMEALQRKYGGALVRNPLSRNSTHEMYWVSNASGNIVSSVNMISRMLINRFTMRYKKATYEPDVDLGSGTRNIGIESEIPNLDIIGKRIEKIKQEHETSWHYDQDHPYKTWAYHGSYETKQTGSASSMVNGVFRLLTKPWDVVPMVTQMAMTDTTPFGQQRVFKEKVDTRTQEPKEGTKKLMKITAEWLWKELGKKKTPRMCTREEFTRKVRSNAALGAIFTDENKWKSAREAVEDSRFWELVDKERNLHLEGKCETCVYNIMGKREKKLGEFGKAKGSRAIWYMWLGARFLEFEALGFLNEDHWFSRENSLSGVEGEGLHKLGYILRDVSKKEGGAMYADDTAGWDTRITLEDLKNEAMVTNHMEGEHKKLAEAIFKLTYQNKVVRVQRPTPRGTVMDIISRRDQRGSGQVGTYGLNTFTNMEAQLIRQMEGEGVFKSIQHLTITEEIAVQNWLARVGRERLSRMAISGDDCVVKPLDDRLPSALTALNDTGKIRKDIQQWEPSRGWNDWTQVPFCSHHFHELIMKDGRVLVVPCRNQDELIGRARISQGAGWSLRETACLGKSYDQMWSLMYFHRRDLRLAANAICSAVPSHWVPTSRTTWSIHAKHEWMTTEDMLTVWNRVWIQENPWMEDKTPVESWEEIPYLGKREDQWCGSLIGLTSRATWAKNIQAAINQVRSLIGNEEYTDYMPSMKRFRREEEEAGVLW
Sequence of Cytochrome P450 2D6 (P10635 whole entry): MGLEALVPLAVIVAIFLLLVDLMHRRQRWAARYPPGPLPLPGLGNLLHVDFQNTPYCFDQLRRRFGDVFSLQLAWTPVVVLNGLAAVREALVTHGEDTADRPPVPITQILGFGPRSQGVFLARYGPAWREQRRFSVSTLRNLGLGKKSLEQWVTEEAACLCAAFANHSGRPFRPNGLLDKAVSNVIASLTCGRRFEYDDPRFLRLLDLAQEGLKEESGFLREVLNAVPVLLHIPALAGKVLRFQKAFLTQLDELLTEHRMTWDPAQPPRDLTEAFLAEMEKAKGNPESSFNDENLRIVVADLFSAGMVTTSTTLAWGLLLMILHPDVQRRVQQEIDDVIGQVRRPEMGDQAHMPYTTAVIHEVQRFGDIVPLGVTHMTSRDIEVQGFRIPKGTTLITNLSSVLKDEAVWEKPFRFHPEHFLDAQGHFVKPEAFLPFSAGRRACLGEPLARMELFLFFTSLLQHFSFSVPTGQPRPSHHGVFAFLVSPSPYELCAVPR
Sequence of Lysosomal acid glucosylceramidase (P04062 whole entry): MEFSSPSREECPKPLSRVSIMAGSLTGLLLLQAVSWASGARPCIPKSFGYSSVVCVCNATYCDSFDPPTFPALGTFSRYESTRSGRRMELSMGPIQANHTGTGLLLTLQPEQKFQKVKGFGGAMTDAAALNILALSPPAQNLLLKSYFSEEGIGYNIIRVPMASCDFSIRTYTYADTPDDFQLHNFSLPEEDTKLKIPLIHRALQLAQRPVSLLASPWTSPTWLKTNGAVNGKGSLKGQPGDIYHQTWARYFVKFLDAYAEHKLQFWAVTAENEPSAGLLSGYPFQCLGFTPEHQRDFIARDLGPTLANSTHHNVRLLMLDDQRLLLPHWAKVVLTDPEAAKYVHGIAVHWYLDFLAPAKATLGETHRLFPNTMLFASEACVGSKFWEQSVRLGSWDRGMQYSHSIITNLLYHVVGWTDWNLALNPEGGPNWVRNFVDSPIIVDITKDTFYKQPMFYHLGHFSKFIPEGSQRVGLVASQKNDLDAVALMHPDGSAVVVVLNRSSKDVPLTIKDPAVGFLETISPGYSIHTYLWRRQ

As for `COc1ccc([C@@H]2CC(=O)c3c(O)cc(O)cc3O2)cc1O` [HESPERETIN], the AC50 in [1] was 39.8 µM (inconclusive).

One may read the EC50 as the midpoint of the concentration-response curve. In the case of `CC(CS(=O)(=O)c1cccc2cccnc12)N1CCCCC1` (centres undefined), the EC50 in [2] is > 50 µM (not active).

For orientation: IC50 means the concentration that inhibits the measured activity by half. In general, CC50 refers to the concentration that lowers cell viability or growth by half. `O=C(c1cc(-c2cccc(O)c2)on1)N1CCN(C(c2ccccc2)c2ccccc2)CC1`: the AC50 in experiment [3] was 1.58 µM (active); in experiment [4] it was 9.7 µM (active). The IC50 is > 35.4 µM (not active) in experiment [5] and 151 µM (inactive) in experiment [8]. Further, the CC50 in experiment [6] is 15.4 µM (active). Besides, the EC50 in experiment [7] and in [9] was > 35.4 µM (not active) each time.

As to `O=C(O)c1cc(N/N=C/c2ccc(-c3ccccc3)cc2)ccc1Cl`, the IC50 was 61.5 µM (active) in [10] and 11 µM (active) in experiment [14]. Further, the AC50 in [11] was 1.83 µM (active); in experiment [13], 18.4 µM (active). Besides, in [12], the CC50 was 31.1 µM (active).
